Reference: ChEMBL document CHEMBL3399943, “In vitro and in silico evaluation of twelve newly-synthesized 1-acetamide-5-methoxy-2-oxindoles as 5-Ht₇ receptor ligands” (Bioorg Med Chem Lett, 2015)

Target: 5-hydroxytryptamine receptor 7 (Homo sapiens) (UniProt P34969)
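Further: displacement of bound [3H]-SB269970 at the 5-HT7 receptor (origin unspecified), test concentration 10 µM, 60 min incubation.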

5-hydroxytryptamine receptor 7 (Homo sapiens), sequence (P34969 whole entry): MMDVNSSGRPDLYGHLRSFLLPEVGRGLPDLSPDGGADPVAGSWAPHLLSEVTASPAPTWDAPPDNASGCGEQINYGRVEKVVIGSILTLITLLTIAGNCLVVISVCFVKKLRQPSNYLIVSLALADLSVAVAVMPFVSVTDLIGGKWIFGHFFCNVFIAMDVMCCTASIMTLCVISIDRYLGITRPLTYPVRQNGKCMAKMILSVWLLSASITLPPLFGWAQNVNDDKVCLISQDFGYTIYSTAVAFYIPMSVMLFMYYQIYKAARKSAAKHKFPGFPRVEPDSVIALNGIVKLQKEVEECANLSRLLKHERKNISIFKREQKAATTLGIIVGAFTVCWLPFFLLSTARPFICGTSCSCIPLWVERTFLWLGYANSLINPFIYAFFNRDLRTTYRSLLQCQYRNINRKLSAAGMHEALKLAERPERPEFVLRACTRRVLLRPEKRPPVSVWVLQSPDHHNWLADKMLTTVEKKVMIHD
Description: Displacement of [3H]-SB269970 from 5-HT7 receptor (unknown origin) at 10 uM after 60 mins

log(activity)	SMILES
0.954	COc1ccc2c(c1)CC(=O)N2C(C(=O)Nc1c(C)cccc1C)C(C)(C)C (configuration not stated)
1.2	COc1ccc2c(c1)CC(=O)N2C(C(=O)Nc1c(C)cccc1C)c1ccccc1 (configuration not stated)
1	COc1ccc2c(c1)CC(=O)N2C(C(=O)NC1CCCCC1)c1ccccc1 (configuration not stated)
1.15	COc1ccc2c(c1)CC(=O)N2C(C(=O)NC(C)(C)C)C(C)(C)C (configuration not stated)
1.38	COc1ccc2c(c1)CC(=O)N2C(C(=O)Nc1c(C)cccc1C)C(C)C (configuration not stated)
1.2	COc1ccc2c(c1)CC(=O)N2C(C(=O)NC(C)(C)C)c1ccc(Cl)cc1 (configuration not stated)
1.25	COc1ccc2c(c1)CC(=O)N2C(C(=O)Nc1c(C)cccc1C)c1ccc(Cl)cc1 (configuration not stated)
1.2	COc1ccc2c(c1)CC(=O)N2C(C(=O)NC1CCCCC1)C(C)C (configuration not stated)
1.18	COc1ccc2c(c1)CC(=O)N2C(C(=O)NC(C)(C)C)c1ccccc1 (configuration not stated)
1.3	COc1ccc2c(c1)CC(=O)N2C(C(=O)NC1CCCCC1)c1ccc(Cl)cc1 (configuration not stated)
1.04	COc1ccc2c(c1)CC(=O)N2C(C(=O)NC1CCCCC1)C(C)(C)C (configuration not stated)
1.48	COc1ccc2c(c1)CC(=O)N2C(C(=O)NC(C)(C)C)C(C)C (configuration not stated)
